Common to all, as to format: in vitro ADME
One data set addresses T1, CYP2D6 (Homo sapiens, UniProt P10635).
T1 construct: purchased BD Biosciences Discovery Labware (Bedford, MA, USA)
In words: Inhibition of recombinant CYP oxidation (fluorescent coumarin substrate). The note with it: read-out: Recombinant CYP IC50 (µM) with 95% confidence intervals. How it is done:
(§1) Incubations were carried out in a total volume of 100 µl of 100 mM Tris-HCl buffer (pH 7.4) in all black, flat-bottom Costar 96-well plates (Corning Incorporated, Corning, NY, USA). […] The samples were then preincubated at 37 °C for 10 min. The reactions were initiated by the addition of NADPH, and 0–10 µM 7-hydroxycoumarin was used as the standard. The fluorescent signal was measured with a Victor^2 1420 multilabel plate counter (PerkinElmer Lifesciences Wallac, Turku, Finland) with excitation and emission wavelengths of 405 and 460 nm, respectively. Fluorescence was monitored every 2 min for 40 min from where the concentration was calculated at the various time points. From these, oxidation rates (µM/min) and the relative remaining activity of the sample at different concentrations were calculated. The data were fit to sigmoidal dose-response curves with nonlinear regression, and IC50 values (the concentration at which the sample reduced the metabolism of the CYP substrate by 50%) were determined. […] This was analyzed using nonlinear equations in Graph Pad Prism, which produced IC50 values and its 95% confidence interval as the results.

The target of a further data set is T2, recombinant CYP 2C19 (Homo sapiens, UniProt P33261).
T2 construct: purchased BD Biosciences Discovery Labware (Bedford, MA, USA)
Described as above. Conditions: CYP 2C19, substrate TFD032, 5 nM recombinant CYP, verbascoside 0.4-50 µM. The procedure: as §1

Another data set deals with T3, recombinant CYP 2A6 (Homo sapiens, UniProt P11509).
T3 construct: purchased BD Biosciences Discovery Labware (Bedford, MA, USA)
T3 sequence (P11509 1-494): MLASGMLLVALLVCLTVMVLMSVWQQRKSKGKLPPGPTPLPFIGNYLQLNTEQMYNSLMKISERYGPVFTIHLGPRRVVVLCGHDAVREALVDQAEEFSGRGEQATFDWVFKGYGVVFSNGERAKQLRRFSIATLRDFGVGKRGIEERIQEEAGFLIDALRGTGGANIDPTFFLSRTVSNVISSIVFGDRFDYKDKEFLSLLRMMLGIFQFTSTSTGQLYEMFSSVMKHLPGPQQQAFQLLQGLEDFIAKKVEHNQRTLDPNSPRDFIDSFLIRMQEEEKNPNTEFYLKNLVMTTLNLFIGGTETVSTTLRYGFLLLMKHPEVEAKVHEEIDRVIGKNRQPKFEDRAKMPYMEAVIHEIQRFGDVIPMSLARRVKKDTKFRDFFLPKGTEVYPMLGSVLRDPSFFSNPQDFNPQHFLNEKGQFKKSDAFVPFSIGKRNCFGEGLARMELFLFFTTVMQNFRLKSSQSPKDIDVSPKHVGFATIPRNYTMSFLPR
The data set is described as above. Conditions: CYP 2A6, substrate coumarin, 5 nM recombinant CYP, verbascoside 0.4-50 µM. How it is done:
as §1

For the next data set, the target named is T4, CYP1A2 (Homo sapiens, UniProt P05177).
T4 construct: purchased BD Biosciences Discovery Labware (Bedford, MA, USA)
The description is as above. The note with it: read-out: Recombinant CYP IC50 (µM) with 95% confidence intervals. How it is done: as §1

A further data set deals with T5, CYP3A4 (Homo sapiens, UniProt P08684).
T5 construct: purchased BD Biosciences Discovery Labware (Bedford, MA, USA)
The description is as above. Conditions: read-out: Recombinant CYP IC50 (µM) with 95% confidence intervals. The procedure: as §1

A further data set addresses T6, CYP1B1 (Homo sapiens, UniProt Q16678).
T6 construct: purchased BD Biosciences Discovery Labware (Bedford, MA, USA)
T6 sequence (Q16678 1-543): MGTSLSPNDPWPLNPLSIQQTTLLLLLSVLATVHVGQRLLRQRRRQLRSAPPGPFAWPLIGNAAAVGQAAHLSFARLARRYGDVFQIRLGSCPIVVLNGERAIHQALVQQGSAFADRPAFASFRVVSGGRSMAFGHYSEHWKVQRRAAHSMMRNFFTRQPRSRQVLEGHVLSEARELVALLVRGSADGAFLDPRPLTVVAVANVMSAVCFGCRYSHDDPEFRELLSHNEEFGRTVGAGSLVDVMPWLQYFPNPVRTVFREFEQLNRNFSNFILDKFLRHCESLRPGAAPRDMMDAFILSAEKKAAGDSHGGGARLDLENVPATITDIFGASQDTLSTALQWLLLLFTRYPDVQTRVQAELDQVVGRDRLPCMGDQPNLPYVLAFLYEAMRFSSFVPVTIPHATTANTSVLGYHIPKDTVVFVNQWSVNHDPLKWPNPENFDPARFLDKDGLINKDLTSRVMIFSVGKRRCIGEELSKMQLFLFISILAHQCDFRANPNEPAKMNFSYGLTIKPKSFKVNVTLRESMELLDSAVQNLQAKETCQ
The data set is described as above. The note with it: read-out: Recombinant CYP IC50 (µM) with 95% confidence intervals. The procedure:
as §1

The target in data set [1] is T7, CYP 2D6 (liver microsomes) (Homo sapiens, UniProt P10635).
T7 construct: from tissue; host or cells: human liver microsomes
The experiment in a line: Inhibition of hepatic microsome-catalyzed CYP oxidation. Conditions: CYP 2D6, substrate TFD023, liver microsomes; read-out: Microsomal IC50 (µM) with 95% Confidence Intervals. The procedure: as §1
Background: Liver microsomes are vesicles of endoplasmic reticulum, rich in cytochrome P450 enzymes.

In data set [2] the target is T8, CYP 3A4 (liver microsomes) (Homo sapiens, UniProt P08684).
T8 construct: from tissue; host or cells: human liver microsomes
The description is as above. Conditions: CYP 3A4, substrate OCA369, liver microsomes; read-out: Microsomal IC50 (µM) with 95% Confidence Intervals. The procedure:
as §1

Data set [3] deals with T9, CYP 2A6 (liver microsomes) (Homo sapiens, UniProt P11509).
T9 construct: from tissue; host or cells: human liver microsomes
T9 sequence (P11509 1-494): T3 sequence (P11509 1-494)
The data set is described as above. The note with it: CYP 2A6, substrate coumarin, read-out: Microsomal IC50 (µM) with 95% Confidence Intervals. The procedure:
as §1

For data set [4], the target named is T10, CYP 2C19 (liver microsomes) (Homo sapiens, UniProt P33261).
T10 construct: from tissue; host or cells: human liver microsomes
Described as above. The note with it: CYP 2C19, substrate TFD032, liver microsomes. The procedure:
as §1

The target in data set [5] is T11, CYP 1A2 (liver microsomes) (Homo sapiens, UniProt P05177).
T11 construct: from tissue; host or cells: human liver microsomes
The data set is described as above. The note with it: CYP 1A2, substrate OCA349, liver microsomes; read-out: Microsomal IC50 (µM) with 95% Confidence Intervals. How it is done:
as §1

“Also recorded” adds a separate entry of the source.

T2 sequence (P33261 whole entry): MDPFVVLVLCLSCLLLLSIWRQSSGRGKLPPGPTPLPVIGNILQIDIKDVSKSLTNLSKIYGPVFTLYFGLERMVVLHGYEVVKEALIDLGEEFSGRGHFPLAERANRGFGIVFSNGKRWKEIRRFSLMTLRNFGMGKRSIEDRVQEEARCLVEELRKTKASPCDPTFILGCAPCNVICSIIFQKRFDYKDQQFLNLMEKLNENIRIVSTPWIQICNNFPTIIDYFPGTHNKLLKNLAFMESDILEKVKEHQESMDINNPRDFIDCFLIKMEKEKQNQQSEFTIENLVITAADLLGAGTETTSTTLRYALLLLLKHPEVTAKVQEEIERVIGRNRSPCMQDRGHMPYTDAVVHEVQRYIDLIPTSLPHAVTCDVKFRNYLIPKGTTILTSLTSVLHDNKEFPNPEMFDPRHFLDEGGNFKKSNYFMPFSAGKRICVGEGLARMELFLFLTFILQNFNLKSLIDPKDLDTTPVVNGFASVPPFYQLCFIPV
T10 sequence (P33261 whole entry): as above
T4 sequence (P05177 whole entry): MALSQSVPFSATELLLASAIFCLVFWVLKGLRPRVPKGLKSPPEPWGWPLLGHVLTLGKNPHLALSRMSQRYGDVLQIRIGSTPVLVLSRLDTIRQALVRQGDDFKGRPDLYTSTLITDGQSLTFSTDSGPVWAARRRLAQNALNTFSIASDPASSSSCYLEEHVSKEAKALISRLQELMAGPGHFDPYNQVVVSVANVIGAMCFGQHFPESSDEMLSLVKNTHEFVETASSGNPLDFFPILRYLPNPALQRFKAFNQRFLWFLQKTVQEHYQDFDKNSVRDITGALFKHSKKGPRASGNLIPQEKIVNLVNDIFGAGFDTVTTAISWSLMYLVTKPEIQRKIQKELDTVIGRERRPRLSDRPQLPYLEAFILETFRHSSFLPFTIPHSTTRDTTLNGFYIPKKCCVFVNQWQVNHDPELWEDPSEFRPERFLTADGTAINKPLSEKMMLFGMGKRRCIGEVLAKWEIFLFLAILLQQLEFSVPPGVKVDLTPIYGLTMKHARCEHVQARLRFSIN
T5 sequence (P08684 whole entry): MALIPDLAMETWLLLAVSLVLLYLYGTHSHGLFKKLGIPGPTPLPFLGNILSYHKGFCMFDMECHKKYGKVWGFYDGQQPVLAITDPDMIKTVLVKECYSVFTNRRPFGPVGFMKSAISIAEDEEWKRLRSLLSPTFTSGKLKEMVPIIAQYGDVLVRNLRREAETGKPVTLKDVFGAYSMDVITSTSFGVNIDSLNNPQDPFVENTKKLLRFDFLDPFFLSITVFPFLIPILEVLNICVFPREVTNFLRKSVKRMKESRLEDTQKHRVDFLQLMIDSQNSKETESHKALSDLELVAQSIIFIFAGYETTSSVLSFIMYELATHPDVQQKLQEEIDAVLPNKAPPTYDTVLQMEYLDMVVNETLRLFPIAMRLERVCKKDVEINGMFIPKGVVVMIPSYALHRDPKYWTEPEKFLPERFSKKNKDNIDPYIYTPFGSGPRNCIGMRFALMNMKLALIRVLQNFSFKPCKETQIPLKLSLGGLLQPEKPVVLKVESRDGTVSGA
T1 sequence (P10635 whole entry): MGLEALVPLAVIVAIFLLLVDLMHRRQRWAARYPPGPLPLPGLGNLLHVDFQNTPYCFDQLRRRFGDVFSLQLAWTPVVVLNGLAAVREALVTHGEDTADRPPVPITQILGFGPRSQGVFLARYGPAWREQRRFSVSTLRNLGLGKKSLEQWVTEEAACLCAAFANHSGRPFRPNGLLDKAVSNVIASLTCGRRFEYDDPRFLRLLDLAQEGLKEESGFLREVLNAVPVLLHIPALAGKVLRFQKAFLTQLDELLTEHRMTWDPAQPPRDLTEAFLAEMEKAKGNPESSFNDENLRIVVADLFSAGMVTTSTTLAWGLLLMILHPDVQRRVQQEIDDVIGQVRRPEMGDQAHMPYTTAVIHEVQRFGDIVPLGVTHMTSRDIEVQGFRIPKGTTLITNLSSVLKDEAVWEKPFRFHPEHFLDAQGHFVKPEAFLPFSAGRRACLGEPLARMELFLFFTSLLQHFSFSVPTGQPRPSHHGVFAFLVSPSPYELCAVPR
T11 sequence (P05177 whole entry): as the sequence (P05177 whole entry) above
T8 sequence (P08684 whole entry): as the sequence (P08684 whole entry) above
T7 sequence (P10635 whole entry): as the sequence (P10635 whole entry) above

For the compound `C[C@@H]1O[C@@H](O[C@@H]2[C@@H](O)[C@H](OCCc3ccc(O)c(O)c3)O[C@H](CO)[C@H]2OC(=O)/C=C/c2ccc(O)c(O)c2)[C@H](O)[C@H](O)[C@H]1O` [Verbascoside], the IC50 at 40 min was more than 50 µM on CYP2D6 (human, recombinant CYP2D6, pH 7.4, probe TFD023 (3-(4-phenyl)-7-methoxycoumarin), 10 µM); more than 50 µM on CYP1A2 (human, recombinant CYP1A2, pH 7.4); more than 50 µM at CYP3A4 (human, recombinant CYP3A4, pH 7.4, probe OCA369 (3-(3-benzyloxo)phenyl-7-methoxycoumarin), 10 µM); more than 50 µM on CYP1B1 (human, recombinant CYP1B1, pH 7.4, probe TFD008 1 (3-(4-phenylacetate)-6-chlorocoumarin), 10 µM). The half-inhibitory concentration (IC50) on CYP2D6 came out at 131 µM; at CYP1A2, 83 µM; at CYP3A4, 314 µM; on CYP1B1, 86 µM; in [1], 96 µM; in data set [2] it was 76 µM. For the same compound, the IC50 is 135 µM in data set [3] and 24 µM in [5]. Moreover, the “Recombinant CYP IC50 (µM) with 95% confidence intervals” value at recombinant CYP 2C19 was “Stimulation ^c”; on recombinant CYP 2C19 (listed as verbascoside) it was “did not inhibit; also recorded: weak ability to stimulate”; on recombinant CYP 2A6, “No inhibition”; at recombinant CYP 2A6 (listed as verbascoside) it was “did not inhibit”. The figures for the “Microsomal IC50 (µM) with 95% Confidence Intervals” value in data set [4] and in data set [4] (listed as verbascoside) were “Stimulation ^c” and “weak ability to stimulate”, respectively.

One may read the IC50 as the midpoint of a concentration-inhibition curve.

These data come from publication PMC6600574 (Molecules, 2019).
